Results as given in patent publication US11548894B2, “Benzamide or benzamine compounds useful as anticancer agents for the treatment of human cancers” (The Board of Regents of the University of Texas System, priority 2015, dated 2023).

Legend:
Srebp1 target genes = experiment: cholesterol gene profile in Mut6 cells, Srebp1 targets; type: cell-based, mouse; settings: Mut6 cells, 2, 9, 16, 24 and 48 hr vs DMSO
Experimental: (§1) In FIG. 13(a)-(e) Mut6 cells were treated with compound 4C12 for 2, 9, 16, 24, and 48 hr, respectively, and their cholesterol gene profile compared to a DMSO control. […] (f) Western blot. Mut6 cells were treated with vehicle only (−) or with compound 4C12 (+) for 7 hr, 13 hr and 23 hr. Cells were collected, lysed in SDS buffer, subjected to SDS PAGE, and cell proteins transferred to a membrane by a standard protocol.

[1] = test system: cholesterol biosynthesis pathway (Srebp2 target genes); experiment: microarray and mRNA levels of cholesterol synthesis genes in Mut6 cells; type: cell-based, mouse
Experimental: Microarray analysis was conducted to identify overrepresented pathways associated with treatment with compound 4C12 for 48 hr.
(§2) FIG. 12A is a bar graph showing cholesterol (pg/cell), and triglyceride (pg/cell) levels in Mut6 cells treated with compound 4C12 for 24 hours and 48 hours, versus a negative control (vehicle only). […] Mut6 cells were treated with compound 4C12 for 24 hours and then mRNA levels for Hydroxymethylglutaryl-CoA synthase(Hmgcs); 3-hydroxy-3-methylglutaryl-coenzyme A reductase (Hmgcr); acetoacetyl-CoA synthetase (AACS); Delta(24)-sterol reductase (Dhcr24); 7-dehydrocholesterol reductase (Dhcr7), Sterol C5-desaturase (Sc5d); Squalene synthase (SS); and farnesyl pyrophosphate (FPP) synthase (FPPS) were determined.
as §1

SREBP2 = experiment: Western blot of SREBP proteins in Mut6 cells; type: cell-based, mouse; settings: 7 hr, 13 hr and 23 hr
Experimental: as §1

Mut6 cells [2] = experiment: cholesterol and triglyceride level (pg/cell) in treated cells; type: cell-based, mouse
Experimental: as §2
FIG. 17 compares cholesterol level (pg/cell) (Left) and triglyceride level (pg/cell) (Right) in Mut6 cells and in MEF cells treated with compound 4C12 for 24 hours and 48 hours to a negative control (vehicle).

Mut6 cells (TD-NSC) = experiment: luminescence-based Celltiter-Glo cell viability assay (ATP levels) on Mut6 tumor derived neuronal stem cells; parameters: species or system mouse
Method in brief: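 Primary tumor-derived neural stem cells from pooled Mut6 (p53/Pten/Nf1 conditional knockout) GBM tumors, serum-free with defined growth factors. Compound exposure 96 h at 37° C., 5% oxygen; viability by CellTiter-Glo ATP luminescence with cell-free background wells, giving IC50 curves.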

[3] = test system: Srebp2 target genes in MEFs; experiment: relative mRNA level of cholesterol biosynthesis pathway target genes in MEFs; type: cell-based, mouse; settings: vs dmso (FIG. 16)
Text: (§3) FIG. 16 is a bar graph of relative mRNA level for cholesterol biosynthesis pathway target genes Hmgcs, Hmgcr, FPPS, LDLR; and SREBP1c in mouse embryo fibroblasts (left) and astrocytes (right) treated with compound 4C12 or dmso (negative control).

[4] = test system: Srebp2 target genes in Astrocytes; experiment: relative mRNA level of cholesterol biosynthesis pathway target genes in astrocytes; type: cell-based, mouse; settings: vs dmso (FIG. 16)
Text: as §3

Mut6 cells [5] = experiment: cell-based wash-out time course with ATP assay at 96 hours (FIG. 8); parameters: species or system mouse
Experimental: FIGS. 8A-B comprising FIG. 8A and FIG. 8B show the identification of molecular changes between 6 hr and 24 hr time points. […] Cells were plated 48 hours before treatment with test compounds Compound 1, Compound 2 and 4C12, and a negative control. Cultures then were treated with the test compound. The media was removed and cells washed twice. Fresh media was added without compound. Data points were 6 hr, 22 hr, 33 hr, 51 hr, 71 hr and continuous. Molecular changes were identified between the 6 hr and 24 hr time points. An ATP assay was performed at 96 hours. On day 2, Cells treated with 4C12 were round-shaped. […] On day 4, 10-20% of the cells were apoptotic. By day 5, 80-90% of the cells were apoptotic.

[6] = test system: mouse embryonic fibroblasts (MEFs); experiment: ATP viability of mouse embryonic fibroblasts treated with increasing concentrations; type: cell-based; settings: increasing concentrations (FIG. 7A)
Experimental: (§4) A luminescence-based Celltiter-Glo® assay was performed to measure cell viability, using ATP levels as the readout. In brief, opaque-walled multiwell plates with Mut6 cells in culture medium (25 μl per well, 384-well plates) were prepared. Control wells containing medium without cells were prepared to obtain a value for background luminescence. Test compounds were added to experimental wells, and incubated according to culture protocol. The plate and its contents were incubated at 37° C., 5% […] for 96 hours. An ATP standard curve was generated immediately prior to adding the CellTiter-Glo® Reagent. A volume of CellTiter-Glo® Reagent equal to the volume of cell culture medium present in each well (25 μl of reagent to 25 μl of medium containing cells for a 384-well plate) was added. The contents were mixed for 2 minutes on an orbital shaker to induce cell lysis. The plate was allowed to incubate at room temperature for 10 minutes to stabilize the luminescent signal and luminescence recorded. (e.g. GloMax®, Lumistar, SPECTROstar, PHERAstar FS).
(§5) Normal astrocytes, Mut6 cells and mouse embryonic fibroblasts were treated with increasing concentrations of compound 4C12. […] Normal astrocytes and MEFs were unaffected by compound 4C12.

Normal astrocytes = experiment: ATP viability of normal astrocytes treated with increasing concentrations; type: cell-based, mouse; settings: increasing concentrations (FIG. 7A)
Experimental: as §4, §5

[7] = Mut6 cells, 24 hours and 48 hours

With `CCN1CCCC1CNC(=O)c1ccc(Sc2ccc(F)cc2)c([N+](=O)[O-])c1` (stereo not drawn) [4C12, N-((1-ethylpyrrolidin-2-yl)methyl)-4-((4-fluorophenyl)thio)-3-nitrobenzamide] the “effect on Srebp1 target genes” value (Srebp1 target genes) was “not Srebp1 target genes”, the “effect on Srebp2 target genes” value ([1]; Mut6 cells, 2, 9, 16, 24 and 48 hr vs DMSO) was “inhibits Srebp2 target genes” and the “relative mRNA of genes for cholesterol synthesis enzymes” value ([1]; Mut6 cells, 24 hours) was “down-regulated”. For the same molecule, the “overrepresented pathways by microarray” value ([1]; treatment for 48 hr) was “deregulates the cholesterol biosynthesis pathway”, the “SREBP2 protein (Western blot)” value (SREBP2) was “effective to decrease SREBP2 protein” and the “specificity of cholesterol decrease” value (Mut6 cells [2]; Mut6 cells vs MEF cells, 24 and 48 hours (FIG. 17)) was “specific to Mut6 tumor cells”. For the same molecule, the “cholesterol (pg/cell)” value (Mut6 cells [2]; [7]) was “decreases”, the “triglyceride (pg/cell)” value (Mut6 cells [2]; [7]) was “increases” and the EC50 (Mut6 cells (TD-NSC); Mus musculus, relative ATP activity versus concentration (FIG. 7A), read-out: ED50 against Mut6 cells) was 50 nM. The “compound-induced cell-death with addition of cholesterol” value (Mut6 cells (TD-NSC); Mut6 cells (FIG. 15(b))) was “inhibits”, the “sensitivity after knock-down of Insig1/Insig2” value (Mut6 cells (TD-NSC); Mut6 cells (FIG. 15(c))) was “less sensitive” and the “live cells (%)” value (Mut6 cells (TD-NSC); Mut6 tumor cells viable after 96 hours (FIG. 7C)) was 50%. For the same molecule, the “Srebp2 target genes mRNA in MEFs” value [3] was “not decreased”, the “Srebp2 target genes mRNA in Astrocytes” value [4] was “not decreased” and the cell shape (Mut6 cells [5]; day 2) was “round-shaped”. For the same molecule, the cell cycle state (Mut6 cells [5]; day 3) was “arrested in G2”, the apoptotic cells (Mut6 cells [5]; day 4) was 10-20% and the apoptotic cells (Mut6 cells [5]; day 5) was 80-90%. The “relative ATP activity versus time” value (Mut6 cells [5]; relative to the control (FIG. 8B)) was “reduced ATP activity as a function of time”, the “effect on viability of MEFs” value [6] was “unaffected” and the “effect on viability of normal astrocytes” value (Normal astrocytes) was “unaffected”.
